Measured values published in patent US12599588B2, “Inhibitor for V-ATPase activity, antibacterial agent, medicine, antibacterial method and screening method” (Japan Science and Technology Agency, priority 2019, dated 2026).
“Also recorded” adds a separate entry of the source. Where two headings read alike, the source gives them in different places.

Legend:
[1] = target: T1, V-ATPase (purified from enterococci or recombinant E. coli) (Enterococcus hirae, UniProt P43439+P43457); assay: ATPase activity measurement (molybdenum blue method, primary screening); type: biochemical
T1 construct: made in house; host or cells: Enterococcus hirae (native) or recombinant E. coli
Description: The ATPase activity can be measured by a molybdenum blue method for measuring absorbance of the inorganic phosphoric acid generated by hydrolysis of ATP. As the reaction conditions, conditions for measuring the ATPase activity can be adopted. As the buffer solution used in the reaction, Tris-HCl buffer can be used. The reaction time is usually 10 to 60 minutes, but can be appropriately adjusted depending on the air temperature or the like. The reaction of V-ATPase is terminated with the addition of a surfactant such as sodium dodecyl sulfate (SDS), and into which a color-developing liquid (such as ferrous sulfate) is added to give a color, and then the concentration of the inorganic phosphoric acid can be calculated by the measurement of the absorbance at a wavelength of 650 nm.
From the concentration of inorganic phosphoric acid calculated above, the inhibition rate of the V-ATPase reaction can be calculated. That is, a graph is created in which the inhibition rate is plotted on the vertical axis and the concentration of compound is plotted on the horizontal axis, and the concentration (IC50) at which the inhibition rate becomes 50% is determined. As the concentration of compound at which IC50 is obtained becomes lower, a higher V-ATPase inhibitory effect is exerted with a small amount, and accordingly, the compound can be taken as a candidate compound for the inhibitor for V-ATPase activity.
The V-ATPase was prepared by the method disclosed in the following papers. • Paper 1: Takeshi Murata, et. al, “Purification and Reconstitution of Na^+-translocating Vacuolar ATPase from Enterococcus hirae”, J. Biol. Chem. 272, 24885-24890 (1997) • Paper 2: Takeshi Murata, et. al, “Torque Generation of Enterococcus hirae V-ATPase”, J. Biol. Chem. 289, 31212-31223 (2014)
ATPase activity measurement was conducted by a molybdenum blue method that quantifies the inorganic phosphoric acid generated by hydrolysis of ATP with the use of absorbance measurement. The measurement was conducted in a 96-well plate, and 0.05% DDM (n-dodecyl-β-D-maltoside), 10 μg/mL of V-ATPase (purified from enterococci or recombinant E. coli), and 20 μM of a compound were added into a buffer (100 mM Tris-HCl at pH 8.5, 100 mM NaCl, 5 mM MgSO4, 10% glycerol). Into the mixture obtained above, ATP was added so as to be 5 mM, the whole amount was set to 100 μL, the reaction was started while stirring the mixture with a stirrer, and the reaction time was set to 30 minutes. Since the ATPase activity changes largely depending on the reaction temperature, the reaction time was adjusted within the range of 10 to 60 minutes corresponding to the air temperature on the day of the experiment. With the addition of 50 μL of 20% SDS, the V-ATPase was denatured and the reaction was terminated, and into the resultant mixture, 75 μL of color-developing liquid (5% ferrous sulfate, 1.6% ammonium molybdate, and 1 M sulfuric acid) was added to give a color. Immediately, the absorbance at a wavelength of 650 nm was measured by using a plate reader. Four kinds of KH2PO4 aqueous solutions of 0.2 mM, 0.5 mM, 1.0 mM, and 1.5 mM were reacted with MQ (ultrapure water) in the same experiment system, and then the activity of V-ATPase was measured by determining the concentration of generated inorganic phosphoric acid with the use of a created calibration curve. In this regard, a compound that had inhibited 50% or more of the activity of V-ATPase was diluted stepwisely so as to have a concentration of 10 μM, 5 μM, 2 μM, 1 μM, 500 nM, 200 nM, 100 nM, and 50 nM, and the measurement similar to the above was conducted.
From the results of the above measurement of ATPase activity, the inhibition rate was calculated comparing the decrease in the activity by assuming the activity under the condition of no compound addition as 100. A graph was created in which the inhibition rate was plotted on the vertical axis and the concentration of compound was plotted on the horizontal axis (FIG. 2). […]

[2] = tested on: enterococci (Enterococcus hirae); assay: Growth experiment of enterococci (secondary screening), OD600 at pH 7.0 and pH 8.5; type: cell-based; design: Growth inhibition rate (%): concentration or dose not given beside the values; details: for Specificity: growth inhibition at pH 8.5 versus pH 7.0
Description: In the culture of enterococci (Enterococcus hirae), a culture medium in which the Na^+ concentration had been adjusted by adding a buffer solution using 2% tryptone and 1% yeast extract as the base was used. In a case of adding glucose, glucose prepared in a 50% solution was added so as to be 1% into the culture medium when the culture medium was used. The whole amount 200 μL was cultured using a 96-well plate, and OD600 was measured every hour by using a plate reader. By using culture media at pH 7.0 and pH 8.5, the effect of pH on the growth was observed. In culture of bacteria, the pH often fluctuates largely due to the decomposition of the sugars required for the growth, and it is extremely important to maintain a constant pH in this experiment, and therefore, the pH was maintained constant with the addition of a buffer suitable for each pH. Since the V-ATPase is expressed only under an alkaline condition, the growth inhibition observed with the addition of an inhibitor is largely dependent on the pH.
IC50 and the like of the above 24 kinds of compounds are described in the following table. […] Furthermore, with respect to the symbol “n.a.”, a compound having a growth inhibition rate of 60% or more at pH 7.0 is determined that there was the growth inhibition. In addition, the growth inhibition rate of a compound having no clear inhibition is also recorded for reference.

[3] = tested on: Enterococcus faecalis (vancomycin-resistant enterococci, VRE); assay: Growth inhibition of pathogenic bacteria, VRE E. faecalis; type: cell-based; details: pH 7.0, pH 7.5, pH 8.0; OD600
Description: (§1) As the pathogenic bacteria, Enterococcus faecalis and Enterococcus faecium that are vancomycin-resistant enterococci (VRE), and Clostridium difficile that leads to deterioration of intestinal environment and is resistant to multiple drugs were prepared. The VRE were cultured by using culture media at pH 7.0, pH 7.5, and pH 8.0, the C. difficile was cultured by using culture media at pH 6.5, pH 7.0, and pH 7.5, and the difference in the number of bacteria was confirmed by measuring OD600.
(§2) The data of pH 7.0, pH 7.5, and pH 8.0 are shown in order from the top of FIG. 6. […] The data of pH 6.5, pH 7.0, and pH 7.5 are shown in order from the top of FIG. 7.

[4] = tested on: Enterococcus faecium (vancomycin-resistant enterococci, VRE); assay: Growth inhibition of pathogenic bacteria, VRE E. faecium; type: cell-based; details: pH 7.0, pH 7.5, pH 8.0; OD600
Description: as §1, §2

Clostridium difficile = assay: Growth inhibition of pathogenic bacteria, C. difficile; type: cell-based; details: pH 6.5, pH 7.0, pH 7.5; OD600
Description: as §1, §2

[5] = Oral administration to mice (intestinal environment), toxicity observation; type: in vivo; details: 20 mM suspension, 0.5 ml orally once a day, five days
Description: To each of four mice, 0.5 ml of the suspension was orally administered once a day, and on five days after the start of administration, the mice were dissected and the feces and intestinal tract contents were collected, and the intestinal pH and sodium ion concentration were measured.

E. faecium of VRE = assay: Test in VRE-infected mice, number of live VRE in the intestine; type: in vivo; details: antibiotic-treated mice infected with E. faecium VRE
Description: Mice treated with antibiotics were infected with E. faecium of VRE, and V-161 was administered to the mice.

[6] = IC50 (nM), Table 2, inhibition of V-ATPase ATPase activity, pH 8.5 buffer
[7] = high affinity for V-ATPase (IC50), unit inferred
[8] = Table 2, E. hirae growth, pH not stated (media pH 7.0 and pH 8.5)
[9] = Table 2, inhibition of V-ATPase ATPase activity, pH 8.5 buffer, read-out: IC50
[10] = IC50 (nM), Table 4, (1,2,4-oxadiazol-3-yl)phenyl derivatives
[11] = Table 4, (1,2,4-oxadiazol-3-yl)phenyl derivatives

Compound	IC50 [1, 6] [nM]	Growth inhibition rate (%) [2, 8] [%]	Specificity ([2]; Table 2)	IC50 [1, 10] [nM]	Growth inhibition rate (%) [2, 11] [%]	other results
Cc1ccc2nc(-c3ccc(N(C)C)cc3)[nH]c2c1 [Compound V-161, N,N-dimethyl-4-(6-methyl-1H-benzo[d]imidazol-2-yl)aniline]	85	88.7	+ (there was no growth inhibition at pH 7.0 but was the growth inhibition at pH 8.5)			IC50 ([1]; IC50 (nM), Table 3, 2-phenyl benzimidazole derivatives): 85 nM; IC50 [1, 7]: ≤ 400 nM; non-specific inhibition / non-specific bond [2]: no non-specific inhibition; Growth inhibition rate (%) ([2]; Table 3, 2-phenyl benzimidazole derivatives): 88.7%; Specificity ([2]; Table 3): + (there was no growth inhibition at pH 7.0 but was the growth inhibition at pH 8.5); growth of E. faecalis (VRE) (FIG. 6) [3]: inhibited in a pH-dependent manner; growth of E. faecium (VRE) (FIG. 6) [4]: inhibited in a pH-dependent manner; also recorded: more strongly affected by the V-161 than E. faecalis; growth of C. difficile (FIG. 7) (Clostridium difficile): inhibited even under a neutral or acidic condition; toxicity in mice [5]: toxicity was not observed; decrease of VRE in the cecum, large intestine, and feces versus controls (FIG. 10) (E. faecium of VRE; cecum, large intestine, feces): around 50%; decrease of VRE in the small intestine versus controls (FIG. 10) (E. faecium of VRE; small intestine): 97%
O=C(c1cnc(Nc2nc3ccccc3o2)nc1)c1cc(Cl)cc(Cl)c1O [Compound V-207]		12.0	− (there was no growth inhibition in any case)			IC50 [1, 9]: 5000 nM
Cc1ccccc1OCc1nc(-c2ccc(NC(=O)c3cccs3)cc2)no1 [Compound V-234, N-(4-(5-((o-tolyloxy)methyl)-1,2,4-oxadiazol-3-yl)phenyl)thiophene-2-carboxamide]	40	75.5	+ (there was no growth inhibition at pH 7.0 but was the growth inhibition at pH 8.5)	40	75.5	IC50 [1, 7]: ≤ 400 nM; non-specific inhibition / non-specific bond [2]: no non-specific inhibition
CCCc1ccc(OCc2nc(-c3ccc(NC(=O)c4cccs4)cc3)no2)cc1 [Compound V-234-01]				50	76.9	
Cc1cccc(OCc2nc(-c3ccc(NC(=O)c4cccs4)cc3)no2)c1C [Compound V-234-02]				40	74.8	
Cc1ccc(C(=O)Nc2ccc(-c3noc(COc4cccc(C)c4C)n3)cc2)s1 [Compound V-234-03]				6	72.0	
O=C1N=C(O)N=C(O)C1=Cc1ccc(-c2ccc([N+](=O)[O-])cc2)o1 [Compound V-278]	250	44.4	+ (there was no growth inhibition at pH 7.0 but was the growth inhibition at pH 8.5)			
CCCOc1ccc(/C=N/Nc2nc3ccccc3[nH]2)c(OCCC)c1 [Compound V-289]		55.0	+ (there was no growth inhibition at pH 7.0 but was the growth inhibition at pH 8.5)			IC50 [1, 9]: 600 nM
